From patent US10576086B2, “Triazine derivatives as interferon-gamma inhibitors” (University of Greenwich, priority 2015, dated 2020)
pIC50: −log10 of the molar value.

Tested on: IFN-γ production in human peripheral blood mononuclear cells (PBMCs)
Test: Experiment 2: IFN-γ production by PHA-stimulated human PBMCs, ELISA
Type: cell-based
Settings: for [IFN-γ]: PHA 5 μg/ml
Experimental: A similar set of tests were carried out, in which three compounds known as CEN-079(3,5-diamino-6-[2-(3,4,5-trichlorothienyl)]-1,2,4-triazine), CEN-092(3,5-diamino-6-(3,5-bistrifluoromethylphenyl)-1,2,4-triazine) and CEN-216(3,5-diamino-6-(2,3-dichlorophenyl)-2,3(2,5)-dihydro-3(5)-imino-2-(2,2,2-trichloroethyl)-1,2,4-triazine) were compared with lamotrigine. CEN-079, CEN-092 and CEN-216 are within the scope of Formulae 1, 2 and 3.
50 ml of blood from three healthy adult donors was collected by venepuncture in heparinised tubes. The blood samples where centrifuged at 3000 rpm for 15 minutes. The supernatant plasma was collected in a centrifuge tube, and centrifuged at 3000 rpm for a further 10 minutes. The supernatant was then collected in a plain tube, and stored at −70° C. for future use.
The cells from the first centrifuged heparinised tube were diluted 1:1 in RPMI-1640, and mixed by multiple inversions. The cell mixture was then slowly layered, using a sterile plastic 3 ml pipette, along a tube wall containing lymphoprep (Nycomed) at a ratio of 2:1 cells/RPMI-1640:Lymphoprep in a 25 ml universal tube. The mixture was centrifuged at 2400 rpm for 30 minutes, and left to stand for 20 minutes. PBMCs were slowly removed from the interface using a sterile plastic pipette, and collected in a 15 ml centrifuge tube.
The cells were washed twice by diluting in RPMI-1640 with 2 mM L-glutamine, 100 U/ml penicillin and 100 μg/ml streptomycin at a ratio of 1:1. The mixture was centrifuged at 3000 rpm for 15 minutes, and the supernatant decanted. PBMCs were then diluted in RPMI-1640 containing 2 mM L-glutamine, 100 U/ml penicillin and 100 μg streptomycin, to make up a volume of 6 ml for subjects 1 and 2, and 9 ml for subject 3.
Cells were counted using an Improved Neubauer haemocytometer (Hawksley, UK) on a light microscope. 10 μl of cell suspension was loaded onto the haemocytometer using a sterile plastic pipette. Cells were counted in five out of 25 1 mm squares, from which the total cell count was calculated.
5 μg/ml PHA was used as a T cell activating agent for the production of IFN-γ. The PBMCs were treated with the four test compounds (lamotrigine, CEN-079, CEN-092, CEN-216) at concentrations of 10 μM, 30 μM and 300 μM to assess their effects on IFN-γ production by the stimulated T cells.
The tests were carried out as for Experiment 1, in which 2×10^6 PBMC/ml, 25 μl of 5% autologous plasma, and 2.63 μl of 5 μg/ml PHA were used. Test compound at each concentration was then added, except for one control case.
10 μM solutions were obtained by adding 1.05 μl of a 5 mM solution of the compounds to the above PBMC-containing solution. 30 μM solutions were obtained by adding 3.15 μl of the 5 mM solution of the compounds. 300 μM solutions were obtained by adding […] solutions of the compounds.
The tubes were covered, gently shaken to mix the contents, and incubated for 24 hours at 37° C. The tubes were then centrifuged at 2500 rpm for 10 minutes. The supernatant was collected in a 3 ml plastic pipette, and aliquots were stored at −70° C. before being analysed.
The test was performed according to the supplier's instructions. Donor samples were diluted 1:1 in phosphate buffered […] (PBS) and assayed simultaneously with IFN-γ standard samples, in duplicate. The standard curve ranged from 15.6 pg/ml to 1000 pg/ml.
A 96-well multiwell microplate (high binding Costar) was prepared, by diluting a capture antibody (720 μg/ml of mouse anti-human IFN-γ) in PBS to a working concentration of 4.0 μg/ml. 100 μl was immediately coated on each well, and left overnight at room temperature. The wells were washed three times in wash buffer, using microplate autowasher (LT-3000, LabTech International Ltd). The remainder of the wash buffer in the wells was removed by blotting on to clean paper towels. The plate was blocked by adding 300 μl Block buffer (1% BSA in PBS) to each well and incubated at room temperature for 1 hour. […]

## Nc1nnc(-c2cccc(Cl)c2Cl)c(N)n1 [Lamotrigine, 3,5-diamino-6-(2,3-dichlorophenyl)-1,2,4-triazine]
10 μM, Subject 1, 24 h
  [IFN-γ] vs control: 104.7%
  [IFN-γ]: 732 pg/mL
10 μM, Subject 2, 24 h
  [IFN-γ] vs control: 78.6%
  [IFN-γ]: 1591.5 pg/mL
10 μM, Subject 3, 24 h
  [IFN-γ] vs control: 74.8%
  [IFN-γ]: 1590.0 pg/mL
30 μM, Subject 1, 24 h
  [IFN-γ] vs control: 65%
  [IFN-γ]: 454 pg/mL
30 μM, Subject 2, 24 h
  [IFN-γ] vs control: 69.1%
  [IFN-γ]: 1400.5 pg/mL
30 μM, Subject 3, 24 h
  [IFN-γ] vs control: 39.2%
  [IFN-γ]: 833.0 pg/mL
300 μM, Subject 1, 24 h
  [IFN-γ] vs control: 8.5%
  [IFN-γ]: 59.5 pg/mL
300 μM, Subject 2, 24 h
  [IFN-γ] vs control: 10.6%
  [IFN-γ]: 215.0 pg/mL
300 μM, Subject 3, 24 h
  [IFN-γ] vs control: 8.7%
  [IFN-γ]: 186.0 pg/mL
Experiment 2, human PBMCs
  inhibition of IFN-γ production in PBMCs (in words): shown to be an inhibitor of IFN-γ production in PBMCs
PBMC, human PBMCs, PHA-stimulated, read-out: IC50 (concentration to inhibit IFN-γ production by 50%)
  pIC50: 4.37
